Laboratory results published in US4675187A, “BBM-1675, a new antibiotic complex” (priority 1985, dated 1987).
“And” between values parts separate entries of the source, which are not always exact repeats. Equal values may be shown once. Read-outs that look alike come from different tables or passages of the source.

What was measured:
[1] = test system: P-388 leukemia; experiment: antitumor activity, intravenously implanted P-388 leukemia; assay type: in vivo, mice
[2] = test system: B16 melanoma
Method: (§1) Lymphocytic leukemia P-388, lymphoid leukemia L-1210, melanotic melanoma B16 and Lewis lung carcinoma were implanted intraperitoneally into male BDF1 mice at an inoculum size of 10^6, 10^5, 5×10^5 and 10^6 cells per mouse, respectively. Graded doses of test compounds were administered to the mice intraperitoneally 24 hours after the tumor inoculation.
(§2) Death or survival of the treated and non-treated mice was recorded daily, and the median survival time (MST) was calculated for each of the test (T) and control (C) groups.

[3] = test system: Lewis lung carcinoma
Method: as §1, §2

[4] = toxicity in mice; details: mouse, in vivo
[5] = iv days 1,4,7, doses as MST lines, same order
[6] = ip qd 1→9, doses as T/C lines, same order
[7] = ip qd 1→11, doses as T/C lines, same order

Row | SMILES | T/C ([1]; iv days 1,4,7, 1 mg/kg/day) | T/C ([1]; iv days 1,4,7, 10 mg/kg/day) | Survivors on day 5 [1, 5] | Survivors on day 45 [1, 5] | T/C ([2]; ip qd 1→9, 0.003 mg/kg/day) | Average wt. change on day 5 [2, 6] | MST [2, 6] | Survivors on day 5 [2, 6] | Survivors on day 45 [2, 6] | T/C ([3]; ip qd 1→11, 0.003 mg/kg/day) | MST [3, 7] | Survivors on day 5 [3, 7] | Survivors on day 45 [3, 7] | Average wt. change on day 5 ([3]; mouse, in vivo, ip) | Survivors on day 5 ([3]; mouse, in vivo, ip) | LD50 ([4]; ip, LD50, multiple dose (qd 1→9) i.p.) | LD50 ([4]; ip, LD50, single dose i.p.) | LD50 ([4]; iv, LD50, single dose i.v.)
1 | COc1cccc2c1C(=O)c1c(O)c3c(c(O)c1C2=O)C[C@@](O)(C(=O)CO)C[C@@H]3O[C@H]1C[C@H](N)[C@H](O)[C@H](C)O1 [Adriamycin, adriamycin] | 100% | 100% | 0/6 and 6/6 | 0/6 | – | – | – | – | – | – | – | – | – | – | – | – | – | –
2 | CO[C@@H]1[C@H](O)C[C@@H](O[C@@H]2C[C@H](Oc3cc4cc5c(c(O)c4c(O)c3C)C(=O)[C@@H](O[C@H]3C[C@@H](O[C@H]4C[C@@H](O[C@H]6C[C@](C)(O)[C@@H](OC(C)=O)[C@H](C)O6)[C@H](O)[C@@H](C)O4)[C@H](O)[C@@H](C)O3)[C@H]([C@H](OC)C(=O)[C@@H](O)[C@@H](C)O)C5)O[C@H](C)[C@@H]2OC(C)=O)O[C@@H]1C [Chromomycin A3, chromomycin A3] | – | – | – | – | 109% | +2.2 g | 25.5 days and 23.0 days and 21.0 days and 18.0 days | 6/6 | 0/6 | 105% | 21.5 days and 17.0 days and 11.5 days | 6/6 | 1/6 and 0/5 and 0/6 | +1.7 g | 5/5 | 0.23 mg/kg | 0.81 mg/kg | 0.41 mg/kg
